We go through twelve compounds from ChEMBL document CHEMBL1201862, “PubChem BioAssay data set” (2004).

Structures are written as SMILES.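 Cells were grown in 96-well plates and exposed to each compound for 48 hours at five concentrations; endpoints were interpolated linearly between bracketing concentrations, or set to the highest concentration if not reached. GI50 = concentration required for 50% inhibition of growth.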 Active and inactive are the calls of the source. No stated cut-off is given here; in the data, active = GI50 up to about 1.1 µM and inactive = higher.

Some test systems named below: HL-60; HCT-116; K562; SR; OVCAR-8; LOX IMVI; SK-MEL-28; SN12C; KM12; SF-295; SW-620; HOP-62; CCRF-CEM; SNB-19; NCI-H226; RXF 393; CAKI-1.
What all share (assay): NCI-60 cell line screen, 48 h

On to `COC(=O)c1c(C(=O)OC)c2cc(C(=O)c3ccccc3)ccn2c1Cl`, for which the GI50 in the assay with HL-60 is 22.8 µM (inactive); in the assay with HCT-116, 39.6 µM (inactive); in the assay with K562, 29 µM (inactive); in the assay on SR it was 15.4 µM (inactive); in the assay with OVCAR-8, 30 µM (inactive); in the assay with LOX IMVI, 36.1 µM (inactive). The GI50 with SK-MEL-28 was 35.8 µM (inactive); in the assay on SN12C it was 49.8 µM (inactive); in the assay with KM12, 24 µM (inactive); with SF-295, 26.4 µM (inactive); in the assay with SW-620 it was 71 µM (inactive); with HOP-62 it was 37.2 µM (inactive). Further, the GI50 in the assay with CCRF-CEM is 29.7 µM (inactive); in the assay on SNB-19, 34 µM (inactive); in the assay on NCI-H226, 22.3 µM (inactive); with RXF 393 it was 23.7 µM (inactive).

With `O=C1c2ccccc2C(=O)C1(Cl)C1(S(=O)(=O)O)c2ccccc2-c2ccccc21`, the GI50 with HL-60, in the assay with HCT-116, with K562, with SR, in the assay with OVCAR-8 and with LOX IMVI was > 100 µM (inactive) each time. Besides, the GI50 in the assay with CAKI-1, in the assay on SK-MEL-28, in the assay on SN12C, in the assay with KM12, in the assay on SF-295 and in the assay with SW-620 was > 100 µM (inactive) in each case. For the same compound, the GI50 in the assay with HOP-62, in the assay on CCRF-CEM, in the assay on NCI-H226 and with RXF 393 was > 100 µM (inactive) throughout.

`CC(=O)c1ccc(NC(=O)C(=O)C(C(=O)c2ccc(Cl)c(Cl)c2)C2OC(=O)c3ccccc32)cc1` (stereo unspecified): the GI50 is 28.1 µM (inactive) in the assay with HL-60; 13 µM (inactive) in the assay with HCT-116; 23.3 µM (inactive) in the assay on K562; > 100 µM (inactive) with SR; 12.5 µM (inactive) with OVCAR-8; 14.4 µM (inactive) with LOX IMVI. Besides, the GI50 is 14.6 µM (inactive) in the assay with CAKI-1; 21.6 µM (inactive) in the assay with SN12C; 20.1 µM (inactive) in the assay with KM12; 21.2 µM (inactive) in the assay on SW-620; 18.9 µM (inactive) with HOP-62; 73.3 µM (inactive) in the assay with CCRF-CEM. For the same compound, the GI50 is 25.5 µM (inactive) in the assay with SNB-19, 5.15 µM (inactive) with NCI-H226 and 4.54 µM (inactive) with RXF 393.

With `COc1ccc(-c2cnoc2-c2ccc(OC)c(OC)c2)cc1OC`, the GI50 in the assay with HL-60 is 0.313 µM (active); in the assay on HCT-116, 1.26 µM (inactive); in the assay on K562, 0.445 µM (active); in the assay with SR, 0.318 µM (active); with OVCAR-8, 3.1 µM (inactive); in the assay with LOX IMVI it was 1.42 µM (inactive). In addition, the GI50 in the assay with CAKI-1 is 2.35 µM (inactive); in the assay with SK-MEL-28, 1.62 µM (inactive); in the assay on SN12C, 3.04 µM (inactive); with KM12, 0.746 µM (active); with SF-295, 0.883 µM (active); with SW-620, 0.414 µM (active). In addition, the GI50 in the assay with HOP-62 was 1.1 µM (active); in the assay with CCRF-CEM it was 1.73 µM (inactive); with SNB-19, 4.15 µM (inactive); in the assay with NCI-H226 it was 1.71 µM (inactive); with RXF 393 it was 1.23 µM (inactive).

For `O=C(/C=C(\O)C(=O)O)/C=C(\O)c1ccc(Cl)cc1`, the GI50 in the assay on HL-60, in the assay with HCT-116, with K562, in the assay with SR, in the assay with OVCAR-8 and in the assay on LOX IMVI was > 100 µM (inactive) throughout. For the same compound, the GI50 in the assay with CAKI-1, with SK-MEL-28, in the assay on SN12C, with KM12, in the assay on SF-295 and in the assay on SW-620 was > 100 µM (inactive) in each case. For the same compound, the GI50 with HOP-62, in the assay with CCRF-CEM, in the assay with SNB-19, with NCI-H226 and in the assay with RXF 393 was > 100 µM (inactive) throughout.

For `CN(C)c1ccc(/C=C2\CCc3ccccc3C2=O)cc1Br`, the GI50 with HL-60 is 21.2 µM (inactive); in the assay on HCT-116 it was 37.3 µM (inactive); in the assay with K562 it was 33.7 µM (inactive); in the assay with SR it was 29.2 µM (inactive); with OVCAR-8, 41.1 µM (inactive); with LOX IMVI, 32.7 µM (inactive). Moreover, the GI50 in the assay with CAKI-1 is 36.4 µM (inactive); with SK-MEL-28 it was 71.1 µM (inactive); with SN12C, > 100 µM (inactive); in the assay on KM12, 38.5 µM (inactive); in the assay with SF-295 it was > 100 µM (inactive); in the assay with SW-620, 34.2 µM (inactive). The GI50 in the assay on HOP-62 was > 100 µM (inactive); in the assay on CCRF-CEM it was 36 µM (inactive); with SNB-19 it was > 100 µM (inactive); in the assay with NCI-H226 it was > 100 µM (inactive); in the assay on RXF 393 it was 75.5 µM (inactive).

Turning to `CC(=O)NC1=C(NCCN(C)C)C(=O)c2ccccc2C1=O`, the GI50 in the assay on HL-60 is 9.79 µM (inactive); in the assay with HCT-116, 8.34 µM (inactive); in the assay on K562, 12.4 µM (inactive); in the assay with SR, 41.3 µM (inactive); with OVCAR-8 it was 11.3 µM (inactive); with LOX IMVI, 12.6 µM (inactive). For the same compound, the GI50 with SK-MEL-28 was > 50 µM (inactive); with SN12C, 10.4 µM (inactive); in the assay on KM12, 15.8 µM (inactive); in the assay on SF-295, 15.2 µM (inactive); in the assay on SW-620 it was 16 µM (inactive); in the assay with HOP-62, 14.5 µM (inactive). For the same compound, the GI50 is 15.4 µM (inactive) in the assay on CCRF-CEM, 17.6 µM (inactive) in the assay on SNB-19, > 50 µM (inactive) in the assay on NCI-H226 and 25.4 µM (inactive) in the assay on RXF 393.

In the case of `O=C1c2c(O)cccc2C(C(=O)CCCCCC(=O)C2c3cccc(O)c3C(=O)c3c(O)cccc32)c2cccc(O)c21`, the GI50 in the assay on HL-60 is 1.15 µM (inactive); in the assay on HCT-116, 0.957 µM (active); in the assay with K562, 0.966 µM (active); in the assay with SR it was 1.79 µM (inactive); in the assay with OVCAR-8, 1.53 µM (inactive); in the assay on LOX IMVI, 0.906 µM (active). For the same compound, the GI50 with CAKI-1 was 4.5 µM (inactive); in the assay on SK-MEL-28, 0.804 µM (active); in the assay on SN12C, 1.04 µM (active); in the assay on KM12, 1.07 µM (active); in the assay with SF-295, 1.14 µM (inactive); with SW-620, 1.09 µM (active). The GI50 in the assay on HOP-62 is 2.88 µM (inactive); in the assay on CCRF-CEM, 1.36 µM (inactive); with SNB-19, 0.973 µM (active); with NCI-H226, 3.64 µM (inactive).

In the case of `COC(=O)C(=O)C(C(=O)C=C(C)C)C(=O)C(=O)Nc1cc(C(F)(F)F)ccc1Cl` (stereo unspecified), the GI50 was > 100 µM (inactive) in the assay with HL-60; > 100 µM (inactive) in the assay with HCT-116; 42.9 µM (inactive) with K562; 17.7 µM (inactive) in the assay on SR; > 100 µM (inactive) in the assay on OVCAR-8; 46.9 µM (inactive) in the assay on LOX IMVI. Besides, the GI50 in the assay with CAKI-1, with SK-MEL-28, in the assay with SN12C, in the assay on KM12, with SF-295 and with HOP-62 was > 100 µM (inactive) throughout. The GI50 in the assay with CCRF-CEM is 21.3 µM (inactive); with SNB-19, > 100 µM (inactive); in the assay with NCI-H226, > 100 µM (inactive); in the assay on RXF 393, > 100 µM (inactive).

On to `CC(=O)c1cccc(NC(=O)C(=O)Nn2c(N)nnc2N)c1`, for which the GI50 in the assay on HL-60, with HCT-116, in the assay on K562, in the assay on SR, in the assay with OVCAR-8 and with LOX IMVI was > 100 µM (inactive) in each case. Moreover, the GI50 with CAKI-1, with SK-MEL-28, with SN12C, in the assay on KM12, in the assay with SF-295 and in the assay with SW-620 was > 100 µM (inactive) throughout. The GI50 in the assay with HOP-62, in the assay on CCRF-CEM, in the assay on SNB-19, in the assay with NCI-H226 and in the assay with RXF 393 was > 100 µM (inactive) throughout.

With `O=C1/C(=C/c2ccccc2)CN(C(=O)C(F)(F)F)C/C1=C\c1ccccc1`, the GI50 was 0.733 µM (active) in the assay on HL-60; 0.333 µM (active) in the assay with HCT-116; 0.467 µM (active) in the assay on K562; 2.02 µM (inactive) with SR; 1.64 µM (inactive) in the assay on OVCAR-8; 1.22 µM (inactive) in the assay on LOX IMVI. Also, the GI50 in the assay with SK-MEL-28 is 1.83 µM (inactive); in the assay on SN12C, 1.7 µM (inactive); in the assay with KM12 it was 1.54 µM (inactive); with SF-295, 1.59 µM (inactive); in the assay with SW-620 it was 0.48 µM (active); in the assay on HOP-62, 11.5 µM (inactive). Moreover, the GI50 with CCRF-CEM is 1.54 µM (inactive); with SNB-19, 4.28 µM (inactive); in the assay on RXF 393, 1.84 µM (inactive).

In the case of `C=CC1C(OC2OC(CO)C(O)C(O)C2O)OC=C(C(=O)OC)C1CC=O` (stereo unspecified), the GI50 in the assay with HL-60, in the assay on K562, in the assay with SR, in the assay on LOX IMVI, in the assay on SK-MEL-28 and in the assay with SN12C was > 100 µM (inactive) in each case. The GI50 in the assay on KM12 is > 100 µM (inactive); in the assay on SF-295, > 100 µM (inactive); with SW-620, 81.8 µM (inactive); in the assay with HOP-62, > 100 µM (inactive); in the assay on SNB-19, > 100 µM (inactive); in the assay with NCI-H226, 37.8 µM (inactive). Moreover, the GI50 in the assay with RXF 393 was > 100 µM (inactive).
